Measured values reported in US20250134104A1, “AGROCHEMICAL ADJUVANTS” (Croda International Plc, priority 2022, published 2025).

System: Botrytis cinerea (ATCC 90479)
Assay: Botrytis cinerea hyphal growth inhibition on PDA agar (colony diameter), adjuvant with or without pyraclostrobin
Format: cell-based
Conditions: for inherent fungicidal activity on their own: adjuvant alone, at any of the concentrations tested; for Fold Change in Growth Inhibition: adjuvant concentration 50 μg/mL (Ia-Ie) or 64 μg/mL (If, Ig), 48 hours at 22° C., relative to fungicide alone; for fold increase in fungicidal activity compared to pyraclostrobin alone: pyraclostrobin at 0.06 μg/mL, against B. cinerea
Protocol: Percent Inhibition-The percent inhibition will be understood to represent the amount the fungicide and/or adjuvant that inhibits the visible growth of the microorganism after 48 hours incubation at 22° C. relative to vehicle treated controls. This is calculated using the following formula:
ØC=diameter of the colony grown on agar supplemented with vehicle (i.e. vehicle treated control), and
ØT=diameter of the colony grown on agar supplemented with fungicide and/or adjuvant formulated in an appropriate vehicle (i.e., solvent such as water C2H5OH, CH3OH, CH3CN, DMSO).
Fold Change—The fold change is a measure of the adjuvant/fungicide combination in inhibiting a microorganism compared to the fungicide alone. This indicates how the adjuvant performs relative to the fungicide alone. This is calculated using the following formula:
where: • INHAF=percent inhibition of fungal growth when treated with fungicide and adjuvant, and • INHF=percent inhibition of fungal growth when treated with fungicide alone.
Botrytis cinerea (ATCC 90479) was cultured on Difco Potato Dextrose Agar (PDA) for 7 days with diurnal UV cycles (12 h UV light and 12 h dark). Spores were harvested in a buffered, sterile saline solution (w/v: 0.9% NaCl with 1% Tween 80) and counted using a haemocytometer. The spore suspension was adjusted to a final concentration of 8.5x10^6 spores/mL to create a standardised inoculum.
To prepare hyphal fragments for adjuvant testing, 8.5x10^4 spores were used to inoculate 10 mL of Difco Potato Dextrose Broth in a 150×25 mm tube. The tube was incubated at 220 RPM, 22° C. for 48 hours.
To create hyphal fragments from the culture, the culture was transferred to a 50 mL plastic conical tube containing approximately 20 sterile 5 mm diameter glass beads and vortexed for 5 min. After vortexing the tube was allowed to stand for 5 min to allow large mycelial clumps to settle and then the top layer containing hyphal fragments was removed and used as inocula for growth inhibition assays.
Fungicides and adjuvants were dissolved in methanol and added to molten PDA (˜50° C.) and then the agar was distributed in the wells of 12 well multiwell plates (1 mL/well). The plates were cooled to room temperature and 10 μL of hyphal inoculum was added to the centre of each well. The plates were incubated at 22° C. for 48 hours and then the colony diameter was measured using a digital caliper. The biological growth control consisted of hyphae and vehicle (0.07% methanol), the negative control was media and vehicle (0.07% methanol).

[1] = with Pyra (pyraclostrobin) 0.0313 μg/mL
[2] = with Pyra (pyraclostrobin) 0.0625 μg/mL

Compound	inherent fungicidal activity on their own	Fold Change in Growth Inhibition [1]	Fold Change in Growth Inhibition [2]	fold increase in fungicidal activity compared to pyraclostrobin alone [fold]
O=C1NC(Cc2ccccc2)C(=O)N2CCCC12 (centres unmarked) [DKP (Ia)]	did not demonstrate any inherent fungicidal activity	1.32	1.15	–
O=C1CNC(=O)C(Cc2ccccc2)N1 (centres unmarked) [DKP (Ib)]	did not demonstrate any inherent fungicidal activity	1.14	1.45	–
CN1C(=O)C2CCCN2C(=O)C1Cc1ccccc1 (centres unmarked) [DKP (Ic)]	did not demonstrate any inherent fungicidal activity	1.23	1.52	1.52
CN1CC(=O)N(C)C(Cc2ccccc2)C1=O (centres unmarked) [DKP (Id)]	did not demonstrate any inherent fungicidal activity	1.09	1.35	–
O=C1NCC(=O)N2CCCC12 (centres unmarked) [DKP (Ie)]	did not demonstrate any inherent fungicidal activity	0.96	1.56	1.56
O=C1NC(Cc2ccccc2)C(=O)N2CCCCC12 (centres unmarked) [DKP (If), cyclo (-Phe-Pip) diketopiperazine]	did not demonstrate any inherent fungicidal activity	1.34	1.28	–
O=C1NC(Cc2ccccc2)C(=O)N2CCC=C12 (centres unmarked) [DKP (Ig), cyclo (-Phe-dhPro) diketopiperazine]	did not demonstrate any inherent fungicidal activity	1.22	1.27	–
